The source of these data is PubChem BioAssay AID1195 (EPA DSSTox, 2008).

SMILES strings stand for the structures.

This data set concerns human maximum recommended daily dose, FDA database. As to the kind of experiment: DSSTox (FDAMDD) FDA Maximum (Recommended) Daily Dose Database. As to conditions: stronger effect = lower value. An outline of the steps:
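MRDD values come from clinical trials with daily oral dosing, usually for 3–12 months, for the average adult, in mg/day converted to mg/kg-bw/day assuming 60 kg. Antineoplastic mg/m2 doses are divided by 37. Activity score maps log10(1/MRDD mmol) onto 1–100.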

The mark [1] stands for this setting: TherapeuticCategory: diagnostic aid.
[2] abbreviates: TherapeuticCategory: anticholinergic.
Where [3] appears, read: TherapeuticCategory: anxiolytic.
[4] abbreviates: TherapeuticCategory: antibacterial.
Setting [5] is: TherapeuticCategory: antihypertensive, antianginal, antiarrhythmic, antiglaucomic.
Setting [6] is: TherapeuticCategory: bronchodilator.
The mark [7] stands for this setting: TherapeuticCategory: antineoplastic.

With `O=[N+]([O-])c1cc(Cl)cc(-c2cc(Cl)cc([N+](=O)[O-])c2O)c1O`, the maximum recommended daily dose (mmol/kg-bw/day) (TherapeuticCategory: none) is 0.0058. The same measure, in the same setting: then `N[C@@H](CCC(=O)N[C@@H](CS)C(=O)NCC(=O)O)C(=O)O`, with 0.0163.

For `CC1(C)N=C(N)N=C(N)N1c1ccc(Cl)cc1`, the maximum recommended daily dose (mmol/kg-bw/day) (TherapeuticCategory: antimalarial) was 0.00132.

For `Nc1c(N=Nc2ccc(-c3ccc(N=Nc4cc(S(=O)(=O)O)c5ccccc5c4N)cc3)cc2)cc(S(=O)(=O)O)c2ccccc12`, the maximum recommended daily dose (mmol/kg-bw/day) under setting [1] is 0.00538.

Regarding `OC(CCN1CCCC1)(c1ccccc1)C1CCCCC1` (centres undefined), under setting [2], the maximum recommended daily dose (mmol/kg-bw/day) was 0.00116.

For `CC1NCCOC1c1ccccc1` (centres undefined), where the note is “TherapeuticCategory: anorexic, CNS stimulant”, the maximum recommended daily dose (mmol/kg-bw/day) was 0.00705. `c1ccc([C@H]2CN3CCSC3=N2)cc1`: for the setting “TherapeuticCategory: anthelmintic”, the maximum recommended daily dose (mmol/kg-bw/day) is 0.00408.

For the compound `CN1[C@@H]2CCC[C@H]1CC(NC(=O)c1nn(C)c3ccccc13)C2` (some centres undefined), the maximum recommended daily dose (mmol/kg-bw/day) (TherapeuticCategory: antiemetic) is 3.2e-05. In the case of `Cc1c(C(C)C)c(=O)n(-c2ccccc2)n1C`, the maximum recommended daily dose (mmol/kg-bw/day) (TherapeuticCategory: analgesic, antipyretic, antiphlogistic) is 0.13.

On to `CC(C)Nc1cccnc1N1CCN(C(=O)c2cc3cc(NS(C)(=O)=O)ccc3[nH]2)CC1`, for which the maximum recommended daily dose (mmol/kg-bw/day) (TherapeuticCategory: antiviral) is 0.0146. Consider `C[C@]12CC[C@@H]3c4ccc(O)cc4CC[C@H]3[C@@H]1CC[C@@H]2O`, for which the maximum recommended daily dose (mmol/kg-bw/day) (TherapeuticCategory: estrogen) was 0.00184. On to `C[C@@H]1CN2CC(=O)Nc3ccc(Cl)cc3[C@]2(c2ccccc2)O1`, for which the maximum recommended daily dose (mmol/kg-bw/day) under setting [3] was 0.00304. As to `CCOc1ccc2ccccc2c1C(=O)N[C@@H]1C(=O)N2[C@@H]1SC(C)(C)[C@@H]2C(=O)O`, the maximum recommended daily dose (mmol/kg-bw/day) under setting [4] was 0.241.

Consider `CC(C)(C)NC[C@H](O)COc1nsnc1N1CCOCC1`, for which the maximum recommended daily dose (mmol/kg-bw/day) under setting [5] was 0.00316. Take `N[C@@H](CCC(=O)O)C(=O)O`: the maximum recommended daily dose (mmol/kg-bw/day) (TherapeuticCategory: experimental antiepileptic) is 0.68. For the compound `CC(=O)OCC(=O)[C@@]1(O)CC[C@H]2[C@@H]3C[C@H](C)C4=CC(=O)C=C[C@]4(C)[C@H]3[C@@H](O)C[C@@]21C`, the maximum recommended daily dose (mmol/kg-bw/day) (TherapeuticCategory: glucocorticoid) was 0.01. Turning to `CO[C@H]1[C@@H](O)C[C@H](O[C@H]2[C@@H](O)C[C@H](O[C@H]3[C@@H](O)C[C@H](O[C@H]4CC[C@@]5(C)[C@H](CC[C@@H]6[C@@H]5C[C@@H](O)[C@]5(C)[C@@H](C7=CC(=O)OC7)CC[C@]65O)C4)O[C@@H]3C)O[C@@H]2C)O[C@@H]1C`, for the setting “TherapeuticCategory: cardiotonic”, the maximum recommended daily dose (mmol/kg-bw/day) was 8.39e-06. Turning to `CN[C@H]1[C@@H](O)[C@H](O[C@H]2O[C@H]([C@H](C)N)CC[C@H]2N)[C@@H](N)[C@H](O)[C@@H]1OC`, the maximum recommended daily dose (mmol/kg-bw/day) under setting [4] was 0.0191. With `CO[C@H]1/C=C/O[C@@]2(C)Oc3c(C)c(O)c4c(O)c(c(/C=N/N5CCN(C)CC5)c(O)c4c3C2=O)NC(=O)/C(C)=C\C=C\[C@H](C)[C@H](O)[C@@H](C)[C@@H](O)[C@@H](C)[C@H](OC(C)=O)[C@@H]1C`, the maximum recommended daily dose (mmol/kg-bw/day) under setting [4] is 0.0243. As to `CC(=O)c1ccc2c(c1)N(CCCN(C)C)c1ccccc1S2`, the maximum recommended daily dose (mmol/kg-bw/day) (TherapeuticCategory: tranquilizer) is 0.000459. In the case of `CN1CCN(CCC=C2c3ccccc3Sc3ccc(S(=O)(=O)N(C)C)cc32)CC1`, for the setting “TherapeuticCategory: antipsychotic, dopamine receptor antagonist”, the maximum recommended daily dose (mmol/kg-bw/day) was 0.00113. Regarding `CN(C)CCC(c1ccccc1)c1ccccn1` (centres undefined), the maximum recommended daily dose (mmol/kg-bw/day) (TherapeuticCategory: antihistaminic, antipruritic) was 0.0026. In the case of `O=C(O)C1=C(CSc2nnnn2CS(=O)(=O)O)CS[C@@H]2[C@H](NC(=O)[C@H](O)c3ccccc3)C(=O)N12`, the maximum recommended daily dose (mmol/kg-bw/day) under setting [4] was 0.0308. With `Cc1ccc(N(CC2=NCCN2)c2cccc(O)c2)cc1`, under “TherapeuticCategory: antihypertensive, diagnostic aid”, the maximum recommended daily dose (mmol/kg-bw/day) was 0.000594.

In the case of `OC(CCN1CCCCC1)(c1ccccc1)C1CCCCC1` (centres undefined), where the note is “TherapeuticCategory: anticholinergic, antiparkinsonian”, the maximum recommended daily dose (mmol/kg-bw/day) is 0.000829. For `NCCCC[C@H](N)C(=O)O`, the maximum recommended daily dose (mmol/kg-bw/day) (TherapeuticCategory: nutrient) was 0.684. For `CCC1(CC)C(=O)NCC(C)C1=O` (centres undefined), under “TherapeuticCategory: sedative, hypnotic”, the maximum recommended daily dose (mmol/kg-bw/day) is 0.0364. `Cc1ccc(C(=O)Oc2ccc(C(O)CNC(C)(C)C)cc2OC(=O)c2ccc(C)cc2)cc1` (centres undefined): the maximum recommended daily dose (mmol/kg-bw/day) under setting [6] is 8.02e-05. As for `CC[C@@H](CO)NC(=O)[C@@H]1C=C2c3cccc4[nH]cc(c34)C[C@H]2N(C)C1`, the maximum recommended daily dose (mmol/kg-bw/day) (TherapeuticCategory: oxytocic) is 3.92e-05. Consider `CC[C@@]1(O)C[C@H](O[C@H]2C[C@H](N(C)C)[C@H](O[C@H]3C[C@H](O)[C@H](O[C@H]4CCC(=O)[C@H](C)O4)[C@H](C)O3)[C@H](C)O2)c2c(cc3c(c2O)C(=O)c2c(O)cccc2C3=O)[C@H]1C(=O)OC`, for which the maximum recommended daily dose (mmol/kg-bw/day) under setting [7] was 0.00333. Turning to `CCCC(CCC)C(=O)O`, the maximum recommended daily dose (mmol/kg-bw/day) (TherapeuticCategory: anticonvulsant, antiepileptic) was 0.289.

As for `C[C@@](Cc1ccc(O)c(O)c1)(NN)C(=O)O`, the maximum recommended daily dose (mmol/kg-bw/day) (TherapeuticCategory: antiparkinsonian) was 0.00368. `C[N+](C)(C)CCCCCCCCCC[N+](C)(C)C`: the maximum recommended daily dose (mmol/kg-bw/day) (TherapeuticCategory: skeletal muscle relaxant) is 9.97e-05.

Take `O=c1[nH]c(=O)n([C@H]2C[C@H](O)[C@@H](CO)O2)cc1F`: the maximum recommended daily dose (mmol/kg-bw/day) (TherapeuticCategory: antiviral, antineoplastic) is 0.00244. Consider `CC(C)C[C@H]1C(=O)N2CCC[C@H]2[C@]2(O)O[C@](NC(=O)[C@@H]3C=C4c5cccc6[nH]c(Br)c(c56)C[C@H]4N(C)C3)(C(C)C)C(=O)N12`, for which the maximum recommended daily dose (mmol/kg-bw/day) (TherapeuticCategory: enzyme inhibitor, antiparkinsonian) is 0.00255. In the case of `CC(c1cc2ccccc2s1)N(O)C(N)=O` (centres undefined), for the setting “TherapeuticCategory: antiasthmatic, anti inflammatry”, the maximum recommended daily dose (mmol/kg-bw/day) is 0.169.

In the case of `CCN(CC)C(=O)Nc1ccc(OCC(O)CNC(C)(C)C)c(C(C)=O)c1` (centres undefined), the maximum recommended daily dose (mmol/kg-bw/day) (TherapeuticCategory: antihypertensive, antianginal) is 0.0176. For the compound `CC(C)(C)NCC(O)COc1ccccc1C#N` (centres undefined), the maximum recommended daily dose (mmol/kg-bw/day) (TherapeuticCategory: antihypertensive, antianginal, antiarrhythmic) is 0.00269. Regarding `CCC1(CC)C(=O)NC(=O)N(C)C1=O`, for the setting “TherapeuticCategory: anticonvulsant”, the maximum recommended daily dose (mmol/kg-bw/day) is 0.0252.

For the compound `CCC(=O)O[C@H]1CC[C@H]2[C@@H]3CC[C@H]4CC(=O)[C@H](C)C[C@]4(C)[C@H]3CC[C@]12C`, under setting [7], the maximum recommended daily dose (mmol/kg-bw/day) is 0.00463. As to `Cc1ncc(CO)c(CO)c1O`, the maximum recommended daily dose (mmol/kg-bw/day) (TherapeuticCategory: enzyme cofactor vitamin) is 0.0394. As for `O=P1(N(CCCl)CCCl)NCCCO1` (centres undefined), under setting [7], the maximum recommended daily dose (mmol/kg-bw/day) is 0.0192. Take `O=C1C[C@@H]2OCC=C3CN4CC[C@]56c7ccccc7N1[C@H]5[C@H]2[C@H]3C[C@H]46`: under “TherapeuticCategory: rat poison”, the maximum recommended daily dose (mmol/kg-bw/day) is 0.00209.

Consider `CN=C(NC#N)NCCSCc1nc[nH]c1C`, for which, where the note is “TherapeuticCategory: antiulcerative”, the maximum recommended daily dose (mmol/kg-bw/day) is 0.159. Regarding `OCCN1CCN(CCCN2c3ccccc3Sc3ccc(C(F)(F)F)cc32)CC1`, the maximum recommended daily dose (mmol/kg-bw/day) (TherapeuticCategory: antispsychotic) is 0.000761. For the compound `O=C(NCC1CCCCN1)c1cc(OCC(F)(F)F)ccc1OCC(F)(F)F` (centres undefined), the maximum recommended daily dose (mmol/kg-bw/day) (TherapeuticCategory: antiarrhythmic) was 0.0121. As for `O=C(OC[C@H]1O[C@](O)(COC(=O)c2cccnc2)[C@@H](OC(=O)c2cccnc2)[C@@H]1OC(=O)c1cccnc1)c1cccnc1`, where the note is “TherapeuticCategory: peripheral vasodilator”, the maximum recommended daily dose (mmol/kg-bw/day) is 0.111.

In the case of `CN(CCOc1ccc(CC2SC(=O)NC2=O)cc1)c1ccccn1` (centres undefined), the maximum recommended daily dose (mmol/kg-bw/day) (TherapeuticCategory: antidiabetic) was 0.000281. `CCOC(=O)C1(c2ccccc2)CCCN(C)CC1` (centres undefined): the maximum recommended daily dose (mmol/kg-bw/day) (TherapeuticCategory: analgesic) was 0.0383.

On to `CN(C)CCN1C(=O)c2ccccc2N(C)c2ccccc21`, for which, under “TherapeuticCategory: antidepressant”, the maximum recommended daily dose (mmol/kg-bw/day) is 0.0406. As for `CCOC(=O)[C@H](CCc1ccccc1)N[C@@H](C)C(=O)N1[C@H](C(=O)O)C[C@H]2CCCC[C@@H]21`, the maximum recommended daily dose (mmol/kg-bw/day) (TherapeuticCategory: antihypertensive) is 0.00124. For the compound `OC[C@H]1O[C@](O)(CO)[C@@H](O)[C@@H]1O`, the maximum recommended daily dose (mmol/kg-bw/day) (TherapeuticCategory: fluid and nutrient replenisher, ferric form as hematinic) is 2.31.

As to `CC(C)Cc1ccc(C(C)C(=O)O)cc1` (centres undefined), the maximum recommended daily dose (mmol/kg-bw/day) (TherapeuticCategory: anti inflammatory) was 0.194. Regarding `Cc1nnc2n1-c1ccc(Cl)cc1C(c1ccccc1)=NC2`, under setting [3], the maximum recommended daily dose (mmol/kg-bw/day) was 0.000541. With `c1ccc(C2(N3CCCCC3)CCCCC2)cc1`, the maximum recommended daily dose (mmol/kg-bw/day) (TherapeuticCategory: analgesic, anesthetic) was 0.000822. With `CCC[C@@H]1C[C@@H](C(=O)N[C@@H]([C@H]2O[C@H](SC)[C@H](O)[C@@H](O)[C@H]2O)[C@H](C)Cl)N(C)C1`, the maximum recommended daily dose (mmol/kg-bw/day) under setting [4] is 0.0706. Turning to `CN(C)CCCN1c2ccccc2Sc2ccccc21`, where the note is “TherapeuticCategory: antipsychotic”, the maximum recommended daily dose (mmol/kg-bw/day) was 0.0587. Turning to `CN(C)[C@@H]1C(=O)C(C(N)=O)=C(O)[C@@]2(O)C(=O)C3=C(O)c4c(O)ccc(Cl)c4[C@@H](O)[C@H]3C[C@@H]12`, the maximum recommended daily dose (mmol/kg-bw/day) under setting [4] was 0.0323. Consider `COc1cc(C[C@@H]2NCCc3cc(O)c(O)cc32)cc(OC)c1OC`, for which the maximum recommended daily dose (mmol/kg-bw/day) under setting [6] was 0.000869. On to `CC(=O)N(CC(O)CO)c1c(I)c(C(=O)NCC(O)CO)c(I)c(C(=O)NCC(O)CO)c1I` (centres undefined), for which, under setting [1], the maximum recommended daily dose (mmol/kg-bw/day) is 0.134. As for `CC[N+](CC)(CC)CCC(O)(c1ccccc1)C1CCCCC1` (centres undefined), the maximum recommended daily dose (mmol/kg-bw/day) under setting [2] was 0.00941.

Turning to `CC1(O)CCC(C(C)(C)O)CC1` (centres undefined), for the setting “TherapeuticCategory: cis form hydrate as expectorant”, the maximum recommended daily dose (mmol/kg-bw/day) is 0.116. Consider `c1ccc2c(c1)Sc1ccccc1N2CC1CN2CCC1CC2` (centres undefined), for which the maximum recommended daily dose (mmol/kg-bw/day) (TherapeuticCategory: antihistaminic) was 0.000518. `CC(C)NCC(O)COc1cccc2[nH]ccc12` (centres undefined): the maximum recommended daily dose (mmol/kg-bw/day) under setting [5] was 0.00403.
